Activity calls are given as the source filed them. No rule for the calls is given here.
biological target: Metabotropic glutamate receptor 4 (Homo sapiens) (UniProt Q14833); experiment: PubChem AID 2180; details: CHO hmGluR4/Gqi5, calcium mobilization, glutamate CRC fold-shift
Sequence (Q14833 whole entry, looked up): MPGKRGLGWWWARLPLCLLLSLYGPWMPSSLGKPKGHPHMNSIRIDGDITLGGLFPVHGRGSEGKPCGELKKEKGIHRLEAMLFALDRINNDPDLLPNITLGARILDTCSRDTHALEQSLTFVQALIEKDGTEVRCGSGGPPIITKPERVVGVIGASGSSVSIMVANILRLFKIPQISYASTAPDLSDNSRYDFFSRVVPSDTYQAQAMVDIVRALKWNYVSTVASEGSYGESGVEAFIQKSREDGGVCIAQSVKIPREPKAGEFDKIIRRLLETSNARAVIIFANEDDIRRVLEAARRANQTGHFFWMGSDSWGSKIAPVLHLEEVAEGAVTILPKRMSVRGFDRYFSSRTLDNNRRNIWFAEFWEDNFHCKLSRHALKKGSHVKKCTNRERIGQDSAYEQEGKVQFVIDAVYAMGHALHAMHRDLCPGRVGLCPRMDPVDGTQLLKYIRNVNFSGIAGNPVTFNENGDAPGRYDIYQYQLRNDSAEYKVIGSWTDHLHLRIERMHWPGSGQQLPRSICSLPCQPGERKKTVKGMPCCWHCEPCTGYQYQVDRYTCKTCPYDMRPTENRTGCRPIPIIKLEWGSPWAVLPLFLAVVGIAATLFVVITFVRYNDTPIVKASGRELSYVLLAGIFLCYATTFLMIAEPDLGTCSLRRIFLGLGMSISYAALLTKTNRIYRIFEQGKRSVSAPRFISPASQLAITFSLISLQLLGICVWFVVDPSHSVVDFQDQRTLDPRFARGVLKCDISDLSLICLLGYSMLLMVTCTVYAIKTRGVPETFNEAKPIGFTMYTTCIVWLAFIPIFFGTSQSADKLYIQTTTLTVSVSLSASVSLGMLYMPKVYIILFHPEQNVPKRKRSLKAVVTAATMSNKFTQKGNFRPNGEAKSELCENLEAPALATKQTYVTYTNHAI

| Potency | SMILES |
| --- | --- |
| 5160 nM (inactive) | O=C(Nc1ccc(F)c(C(F)(F)F)c1)c1ccccn1 |
| 641 nM | COc1cc(NC(=O)c2ccccn2)ccc1C |
| 381 nM | COc1cc(NC(=O)c2ccccn2)ccc1Cl |
| 604 nM | COc1cc(NC(=O)c2ccccn2)ccc1F |
| 601 nM | O=C(Nc1cccc(Cl)c1)c1ccccn1 |
| 6060 nM (inactive) | O=C(Nc1ccc(Cl)c(C(F)(F)F)c1)c1ccccn1 |
| 1600 nM | COc1ccc(NC(=O)c2ccccn2)cc1Cl |

— PubChem BioAssay AID2180 (Vanderbilt High Throughput Screening Facility, 2009)
